One may read the EC50 as the midpoint of the concentration-response curve.

The test addresses Neuronal acetylcholine receptor subunit alpha-7 (Homo sapiens, UniProt P36544). Kind of test: Positive allosteric modulator activity at human alpha7 nAChR expressed in rat GH4C1 cells assessed as potentiation of acetylcholine-induced response by FDSS Ca2+ assay. It counts as cell-based, GH4-C1.

Chain of Neuronal acetylcholine receptor subunit alpha-7 (P36544 whole entry): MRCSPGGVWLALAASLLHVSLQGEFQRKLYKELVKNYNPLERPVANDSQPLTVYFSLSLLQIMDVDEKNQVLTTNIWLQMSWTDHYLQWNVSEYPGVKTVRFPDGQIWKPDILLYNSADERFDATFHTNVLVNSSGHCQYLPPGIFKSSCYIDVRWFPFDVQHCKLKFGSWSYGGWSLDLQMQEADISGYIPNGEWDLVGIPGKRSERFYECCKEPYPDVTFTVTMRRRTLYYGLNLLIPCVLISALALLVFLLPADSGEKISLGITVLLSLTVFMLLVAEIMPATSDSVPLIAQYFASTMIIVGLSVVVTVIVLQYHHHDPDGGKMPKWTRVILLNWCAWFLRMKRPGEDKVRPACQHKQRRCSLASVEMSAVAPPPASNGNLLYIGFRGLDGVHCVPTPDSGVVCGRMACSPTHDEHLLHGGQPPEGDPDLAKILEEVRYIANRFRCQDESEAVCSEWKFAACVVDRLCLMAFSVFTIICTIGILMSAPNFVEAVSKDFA

On to `C[C@H](NC(=O)[C@H]1C[C@@H]1c1ccccc1)c1ccc(S(C)(=O)=O)nc1`, for which the EC50 is 2000 nM.

The values above are taken from ChEMBL document CHEMBL2331348, “Positive allosteric modulators of nicotinic acetylcholine receptor” (ACS Med Chem Lett, 2013).
